Values quoted from earlier work in patent publication US10125164B2, “Process for preparing D-arginyl-2,6-dimethyl-L-tyrosyl-L-lysyl-L-phenylalaninamide” (FLAMMA S.P.A., priority 2014, dated 2018).
Where a SMILES comes first, the peptide text is derived from it. [ ]: non-standard residue; d: D form. Dmt = Cc1cc(O)cc(C)c1C[C@H](N)C(=O)O

Tests used:
N2A neuronal cell line = conditions: compound <1 nM
[1] = test system: SH-SY5Y neuronal cell line; conditions: compound <1 nM
[2] = test system: unilateral ureteral obstruction; conditions: rats, intraperitoneal 1 and 3 mg/kg, 1 day prior to obstruction and every day thereafter for 14 days
mouse pancreatic islets = conditions: 3 mg/kg i.p. qd for 2 weeks
[3] = test system: G93A mouse model of amyotrophic lateral sclerosis; conditions: 5 mg/kg/day i.p. starting at 30 days of age
[4] = test system: inner mitochondrial membrane
mu-opioid receptor = mu-opioid receptor (Homo sapiens, UniProt P35372)
Chain of mu-opioid receptor (P35372 whole entry): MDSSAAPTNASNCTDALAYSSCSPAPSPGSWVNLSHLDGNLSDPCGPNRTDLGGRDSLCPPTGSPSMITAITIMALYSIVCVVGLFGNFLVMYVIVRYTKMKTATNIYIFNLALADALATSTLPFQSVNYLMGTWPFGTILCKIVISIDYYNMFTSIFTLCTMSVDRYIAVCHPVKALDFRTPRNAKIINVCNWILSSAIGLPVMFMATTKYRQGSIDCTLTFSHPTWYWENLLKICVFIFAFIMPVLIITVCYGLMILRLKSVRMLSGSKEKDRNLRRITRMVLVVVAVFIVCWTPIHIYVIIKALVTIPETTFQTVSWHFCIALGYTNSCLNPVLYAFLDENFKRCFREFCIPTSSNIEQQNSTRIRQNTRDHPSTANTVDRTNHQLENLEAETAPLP

Cc1cc(O)cc(C)c1C[C@H](NC(=O)[C@H](N)CCCNC(=N)N)C(=O)N[C@@H](CCCCN)C(=O)N[C@@H](Cc1ccccc1)C(N)=O [D-Arginyl-2,6-dimethyl-L-tyrosyl-L-lysyl-L-phenylalaninamide] (H-[dR][Dmt]KF-NH2)
intracellular reactive oxygen species (N2A neuronal cell line): significantly reduced | mitochondrial potential (N2A neuronal cell line): increased | tBHP-induced apoptosis (N2A neuronal cell line): prevented | intracellular reactive oxygen species [1]: significantly reduced | mitochondrial potential [1]: increased | tBHP-induced apoptosis [1]: prevented | interstitial fibrosis [2]: significantly decreased | macrophage infiltration [2]: significantly decreased | tubular damage [2]: significantly decreased | apoptosis in pancreatic islets caused by streptozotocin (mouse pancreatic islets): prevented | insulin reduction in pancreatic islets caused by streptozotocin (mouse pancreatic islets): prevented | disease onset [3]: significant delay | antioxidant activity [4]: showed antioxidant activity | mu-opioid receptor agonist activity (mu-opioid receptor): does not have mu-opioid receptor agonist activity
